From patent EP0819136B1, “MDP DERIVATIVES AND CONJUGATES HAVING HAEMATOPOIETIC FUNCTION STIMULATING ACTIVITY, AND COMPOSITIONS CONTAINING SAME” (VACSYN S.A., priority 1995, dated 1996) come the findings set out here.

Test [1] concerns neutrophiles, leucocytes et myélocytes. The test is described as follows: Blood cell counts in mice given i.v. AZT 40 mg/kg plus Muradimétide i.v. or p.o. (Example 2). Type of test: in vivo, souris CDI mâles. The method, then:
Le traitement par l'AZT seul induit classiquement une diminution du nombre des leucocytes et des neutrophiles circulants. Cette diminution est suivie par une reconstitution intervenant environ 4 à 7 jours après le début du traitement. Quand le Muradimétide a été administré par voie générale ou par la voie orale après un traitement par 40 mg/kg d'AZT, il n'y a pas de baisse du nombre de cellules et au contraire il y a une multiplication par au moins 1,5 du nombre de leucocytes et un triplement de celui des neutrophiles et cela dès après 4 jours. Les résultats sont représentés dans le tableau 2 ci-dessous.
Des souris CDI mâles (5 par groupe) ont été injectées avec de l'AZT à la dose de 40 mg par kg aux jours 0 à 3. Le Muradimétide est administré les mêmes jours à la dose de 10 mg par kg en intraveineux ou de 50 mg par kg per os. Les comptages cellulaires sont réalisés au jour 0 (avant le traitement), et aux jours 3 et 4. Tableau 2

The next test has as its system myélocytes circulants. Nature of the test: Circulating myelocytes during two weeks of oral treatment, 4 days per week (Example 4, figure 11). It is filed as in vivo, souris. Conditions: p.o. days 0, 1, 2, 3 and 7, 8, 9, 10; MDM 25 mg/kg, AZT 50 mg/kg or both. The procedure: La figure 11 représente l'effet d'un traitement per os de souris pendant deux semaines consécutives (4 jours par semaine) avec l'AZT, le Muradimétide ou le mélange des deux sur le nombre des myélocytes circulants.
La figure 11 montre l'effet d'un traitement par le MDM à 25 mg/kg (X), de l'AZT à 50 mg/kg (O) et du mélange des deux (□) sur le comptage des myélocytes de souris traitées pendant 2 semaines aux jours 0, 1, 2, 3 de la première semaine et 7, 8, 9, 10 de la deuxième semaine. […] Si l'effet est surtout marqué au niveau de la première semaine, cela montre que le traitement nécessite un certain espace de temps entre les différents cycles de traitement et que des traitements répétés pourraient, le cas échéant, être utiles.

For test [2], the system named is leucocytes et de neutrophiles circulants. The test is described as follows: Leucocyte, neutrophil and myelocyte counts after oral Muradimétide with non-myelotoxic or myelotoxic i.v. AZT (Example 8, figures 1-3). It is filed as in vivo, souris Swiss femelles. Conditions: Muradimétide 25 mg/kg p.o. 4 h before AZT 5 or 40 mg/kg i.v., days 0-3; time after start of treatment. The method, then: La figure 1 montre l'effet d'un traitement per os des souris avec du Muradimétide en association avec des doses d'AZT non myélotoxiques (5 mg par kg) (Fig 1A) ou myélotoxiques (40mg par kg) (Fig 1B) sur le changement des leucocytes circulants.
La figure 2 représente le même type de courbe sur la numération des neutrophiles; la figure 2A représente une expérience réalisée avec une dose non myélotoxique d'AZT (5 mg par kg) et la figure 2B avec une dose myélotoxique d'AZT (40 mg par kg).
La figure 3 représente le même type de courbe sur la numération des myélocytes. La figure 3A se rapporte à une dose non myélotoxique d'AZT (5mg/kg) et la figure 3B à une dose myélotoxique (40 mg/kg).
Cet effet est indiqué sur les figures 1 et 2, les figures 1A et 2A représentant une dose non myélotoxique d'AZT et les figures 1B et 2B représentant une dose myélotoxique d'AZT.
Dans cette expérience, des souris Swiss femelles ont été injectées par voie intra-veineuse avec de l'AZT à la dose de 5 ou de 40 mg par kg aux jours 0, 1, 2 et 3. Sur chacun des 4 jours et 4 heures avant l'administration d'AZT, des groupes de souris constitués de 5 individus ont reçu per os soit du tampon soit du Muradimétide à la dose de 25 mg par kg.
Les comptages cellulaires sont effectués aux jours 0, 1, 2, 3, 4 et 7. […]

[3] abbreviates: AZT 40 mg/kg i.v. days 0-3 + Muradimétide i.v. 10mg/kg days 0-3, day 0 (before treatment).
[4] abbreviates: AZT 40 mg/kg i.v. days 0-3 + Muradimétide i.v. 10mg/kg days 0-3, day 3.
Setting [5] is: AZT 40 mg/kg i.v. days 0-3 + Muradimétide i.v. 10mg/kg days 0-3, day 4.
[6] abbreviates: AZT 40 mg/kg i.v. days 0-3 + Muradimétide p.o 50 mg/Kg days 0-3, day 0 (before treatment).
Where [7] appears, read: AZT 40 mg/kg i.v. days 0-3 + Muradimétide p.o 50 mg/Kg days 0-3, day 3.
[8] abbreviates: AZT 40 mg/kg i.v. days 0-3 + Muradimétide p.o 50 mg/Kg days 0-3, day 4.
Where [9] appears, read: Muradimétide by general or oral route after AZT 40 mg/kg, after 4 days.

Molecules are shown by their SMILES.

With `COC(=O)CC[C@@H](NC(=O)[C@H](C)NC(=O)[C@@H](C)O[C@H]1[C@H](O)[C@@H](CO)OC(O)[C@@H]1NC(C)=O)C(=O)OC` (stereo partly drawn) [Muradimétide, Nac-Mur-L-Ala-D-Glu-[OCH3]-OCH3], the “pourcentage de myélocytes ou de promyélocytes (result in words)” value in test [1] (AZT 40 mg/kg i.v. + Muradimétide, whatever the route of administration) is given as “augmentation spectaculaire”. Further, the Leucocytes in test [1] (setting [3]) is 6.0 ± 3.4 x 10^6/ml; in test [1] (setting [4]), 5.9 ± 2.9 x 10^6/ml; in test [1] (setting [5]), 7.6 ± 1.6 x 10^6/ml; in test [1] (setting [6]) it was 4.8 ± 0.4 x 10^6/ml; in test [1] (setting [7]) it was 6.1 ± 1.4 x 10^6/ml; in test [1] (setting [8]), 8.1 ± 2.9 x 10^6/ml. In addition, the Myelocytes was 5 ± 7 x 10^4 /ml in test [1] (setting [3]); 145 ± 83 x 10^4 /ml in test [1] (setting [4]); 117 ± 46 x 10^4 /ml in test [1] (setting [5]); 14 ± 13 x 10^4 /ml in test [1] (setting [6]); 123 ± 55 x 10^4 /ml in test [1] (setting [7]); 138 ± 59 x 10^4 /ml in test [1] (setting [8]). In addition, the Neutrophiles in test [1] (setting [3]) was 2.0 ± 1.3 x 10^6 /ml; in test [1] (setting [4]) it was 1.5 ± 0.8 x 10^6 /ml; in test [1] (setting [5]) it was 4.6 ±1.5 x 10^6 /ml; in test [1] (setting [6]), 1.4 ± 0.5 x 10^6 /ml; in test [1] (setting [7]), 1.6 ± 0.5 x 10^6 /ml; in test [1] (setting [8]), 4.3 ± 2.47 x 10^6 /ml. The “multiplication du nombre de leucocytes” value in test [1] (setting [9]) is on record as ≥ 1,5. The “nombre de neutrophiles (fold change)” value in test [1] (setting [9]) was “triplement”. In the test on myélocytes circulants, the “effet sur la mobilisation des CHS (comptage des myélocytes)” value is “effet significatif”. For the same compound, the “temps de l'effet maximum (leucocytes, neutrophiles, myélocytes)” value in test [2] was 4 jours.
